# Like-named read-outs stand apart in the source and are kept apart here.
# Tests used:
# female mice = test system: female mice
# Procedure: According to the skin sensitization test based on the Local Lymph Node Assay (LLNA), the SI value was measured in the following manner.
# As positive control material, α-hexylcinnamaldehyde (HCA; product of Wako Pure Chemical Industries, Ltd.) was used.
# As a medium, a liquid mixture containing acetone (product of Wako Pure Chemical Industries, Ltd.) and olive oil (product of Fudimi Pharmaceutical Co., Ltd.) in a volume ratio of 4 to 1 was used.
# Before the test, female mice were acclimated about the test substances, the positive control, the medium control for 8 days including 6-day quarantine.
# Based on the body weights measured two days before the initiation of sensitization, they were categorized into two groups (four mice/group) by the body weight stratified random sampling method so that the body weight of each individual was within ±20 percent of the average body weight of all the individuals. Each of the animals for the test was eight to nine weeks old at the time of the initiation of sensitization. The individuals remaining after the categorization were excluded from the test.
# The test substance was weighed in a measuring flask, and the volume of the test substance was adjusted to 1 mL with the medium. The thus-prepared test substance preparation was placed in a light-shielded airtight container (made of glass).
# Prepared liquids and media of each of the test substance and positive control substance were applied to both auricles of the animal in an amount of 25 μL of each. A micropipettor was used for application. This treatment was performed once a day for three consecutive days.
# About 48 hours after the final sensitization, the BrdU preparation liquid (0.5 mL) was intraperitoneally administered once to each of the animals.
# About 24 hours after the administration of BrdU, the tested animals were allowed to undergo euthanasia, and their auricular lymph nodes were sampled. The surrounding tissue of each auricular lymph node was removed, and the auricular lymph nodes from both the auricles were collectively weighed. Also, the average and standard error of the weights of the auricular lymph nodes were calculated for each group. After the measurement of the weights, the auricular lymph nodes of each individual were stored in a frozen state using a biomedical freezer set to −20 degrees C.
# After returning the auricular lymph nodes to room temperature, the auricular lymph nodes were mashed with the gradual addition of physiological saline, and suspended therein. The thus-obtained suspension was filtrated and thereafter dispensed into the wells of a 96-well microplate, with 3 wells being used per individual. The thus-dispensed suspensions were measured for intake of BrdU by the ELISA method. The reagents used were those of a commercially available kit (Cell Proliferation ELISA, BrdU colorimetric, Cat. No. 1647229, product of Roche Diagnostics Inc.). A multiplate reader (FLUOSTAR OPTIMA, product of BMG LABTECH Inc.) was used to measure the absorbance of each well (OD: 370 nm to 492 nm, the intake of BrdU), and the average of the absorbance of the 3 wells for each individual was used as the measurement of BrdU for the individual.
# As shown in the following formula, the measurement of BrdU intake for each individual was divided by the average of the measurements of BrdU intake in the vehicle control group to calculate the SI value for the individual. The SI value of each test group was the average of the SI values of the individuals. […] SI=(Average (average of 3 well) of BrdU measuring value of individual)/(Average (average of four animals) of BrdU measuring value of medium control group) Relation 1
# [1] = assay type: cell-based; details: OECD test guideline TG471 (±S9mix)
# [2] = Oral toxicity according to OECD Test Guideline TG423; assay type: in vivo
# [3] = in vivo
# [4] = LLNA, BrdU intake by ELISA, mice, test substance 50.0 w/v percent in acetone/olive oil 4:1, 25 μL per auricle once per day × 3 days
Compound,SI (stimulation index) (female mice; [4]),"SI (stimulation index) (female mice; female, mouse, in vivo, 3 days)",further results
"C=CC(=O)N(C)CC(=O)OC [Example A1-1, N-acryloyl-N-methyl glycine methyl ester]",(See Synthesis Example 1) SI = 1.00,–,"SI value (skin sensitivity) (female mice; OECD Test Guideline TG442B): 1.00; AMES test [1]: negative; Oral toxicity, cases died [2]: 0 out of 6; LD50 ([2]; in vivo, 2000 mg/kg): ≥ 2000 mg/kg; PII (skin irritation) [3]: 0.5"
"C=CC(=O)N(CC(=O)OC)C(C)C [Example A1-3, N-acryloyl-N-isopropyl glycine methyl ester]",–,(See Synthesis Example 3) SI = 1.05,–
"C=CC(=O)N(C)[C@@H](C)C(=O)OC [Example A1-4, N-acryloyl-N-methyl alanine methyl ester]",–,(See Synthesis Example 4) SI = 1.12,–
"C=CC(=O)N(C)[C@@H](C)C(=O)OC(C)C [Example A1-6, N-acryloyl-N-methyl alanine isopropyl ester]",–,(See Synthesis Example 6) SI = 1.21,–
"C=CC(=O)N1CCC(C(=O)OCC)CC1 [Example A1-7, N-acryloyl-piperidine-4-ethyl carboxylate]",–,(See Synthesis Example 7) SI = 1.70,–
"C=C(C)C(=O)OCCO [Example A2-1, 2-hydroxyethyl methacrylate, reference compound]","2-hydroxyethyl methacrylate, SI = 1.26, Manufactured by Tokyo Chemical Industry Co. Ltd..",–,–
"C=C(C)C(=O)OCCOCCOC(=O)C(=C)C [Example B1-1, diethylene glycol dimethacrylate]",–,"2G, SI = 1.05, manufactured by Shin-Nakamura Chemical Co.,Ltd.",–
"C=C(C)C(=O)OCC(CC)(COC(=O)C(=C)C)COC(=O)C(=C)C [Example B1-3, trimethylol propane trimethacrylate]","TMPT, SI = 1.03, manufactured by Shin Nakamura Chemical Co., Ltd.",–,–
"C=C(C)C(=O)OCC(COC(=O)C(=C)C)OC(C)=O [Example B1-6, 2-acetyl-1,3-glycerol dimethacrylate]",–,(See Synthesis Example 8) SI = 1.40,–
"C=CC(=O)OCC(CC)(COC(=O)C=C)COC(=O)C=C [Example B2-1, reference compound]","M-3547, SI = 3.42, manufactured by TOAGOSEI CO., LTD.",–,–
"Isobornyl acrylate [Example A2-2, reference compound]","Isobornyl acrylate, SI = 8.30, manufactured by Osaka Organic Chemical Company",–,–
